Reference: patent US20230416168A1 (EUROCHEM ANTWERPEN, priority 2020, published 2023)
Where two headings read alike, the source gives them in different places.

Assays:
[1] = system: Nitrosospira multiformis; assay: Nitrification inhibition assay with Nitrosospira multiformis (nitrite level after 24 h); format: cell-based; conditions: for IC50 / activity at 100 µM / activity at 50 µM: Nitrosospira multiformis; for activity at 100 µM / activity at 50 µM: 24 h, read-out: Nitrification at tested concentration (0 = maximum activity); for activity at 50 µM: tested concentration 50 μM
Method: (§1) The compounds of formula (I) and (II) and (III)/(IV) were tested for their nitrification inhibition effect in two screens, using assays with the nitrifying bacteria N. europaea and N. multiformis. In practice, ammonium and candidate nitrification inhibitors (at 100 μM) were added to a dense bacterial culture in multiwell culture plates and after 24 h of incubation, the nitrite level was measured. To normalize for differences between batches of cultures and multiwell culture plates, for each well a relative nitrification was calculated that was normalized towards both the negative and positive controls (see “Material and Methods” below for full details).
(§2) Nitrite (NO2−) was measured using the Griess reagent (Product number: G4410, Griess reagent (modified), Sigma-Aldrich). Equal volumes of the sample or a diluted sample and the Griess reagent were mixed a transparent flat bottom multi-well plate and incubated in the dark at room temperature for 10 minutes. Absorbance values at 540 nm were measured spectrophotometrically (EnVision, Perkin Elmer®) and used to calculate the [NO2−] by use of a standard curve.
Cultures were first 5 times overconcentrated in fresh 181-medium by centrifugation (4000 rpm, 15 min, 5° C.) in 50 mL centrifuge tubes (Cat. No. 430829, CentriStar™ Conical Centrifuge Tubes, Corning®). Per batch, all the cultures were pooled in one sterile Schott bottle and subsequently dispensed in 384-well plates (Cat. No. 781086, CELLSTAR® plate, Greiner BioOne; 50 μl/well) by use of a dispenser (Multidrop™ Combi Reagent Dispenser, Thermo Scientific™) that was first flushed with 181-medium. 0.5 μl of 99.99% DMSO (negative control—final concentration […] was added to the outer two columns on the left side of the plate and 0.5 μl of 10 mM DMP (3,4-dimethylpyrazole, positive control—final concentration 100 μM) was added to the outer two columns on the right side manually. Finally, 0.5 μl of candidate nitrification inhibitors (5 mM stock solutions in 99.99% DMSO—final concentration 50 μM) were added to the central wells using a pin tool on a Tecan robot (Freedom EVO®, Tecan). In between additions, the pins were washed in sequence with 99.5% DMSO, MilliQ water and 100% ethanol and air-dried. All plates were separately wrapped in Parafilm. Stacks of 4 plates were put on top of a 96-well plate filled with 100 μl MilliQ per well, covered with aluminum foil and shaken (±150 rpm) at 30° C. 24 h later, NO2− production was assessed. For this, the samples were first 100 times diluted by pipetting 3 μl of samples into 300 μl fresh growth medium in intermediate plates (Cat. No. 353077, Falcon® 96-well Clear Round Bottom Microplate, Corning®) to then mix 15 μl of the diluted samples with 15 μl Griess reagent in the wells of a transparent, flat bottom 384-well plate (Cat. No. X^7001, Low Profile Microplate, Molecular Devices) that was measured spectrophotometrically at 540 nm (EnVision, Perkin Elmer®).
(§3) To assess the efficacy of the compounds (in terms of nitrification inhibition) and to enable comparison between plates and batches of cultures, we calculated the relative nitrification. More in detail, all nitrite results were normalized towards both a negative control, containing no compound, and a positive control, containing the benchmark (100 μM DMP), using Equation 1. This normalization was done per multi-well plate and each plate contained 32 positive and 32 negative controls.
IC50 values, that is the concentration that inhibits 50% of the nitrification, were calculated after fitting a logistic curve to 8-point dose response data, using doses between 2 and 100 μM with 1.75 fold steps. If a concentration of 2 μM already inhibited nitrification, the IC50 value could not be calculated. In that case, IC50 values represent the dose that gives inhibition closest to 50%.
The compounds of formula (I) and (II) were tested for their nitrification inhibition effect in two screens, using assays with the nitrifying bacteria N. europaea and N. multiformis. […]

[2] = system: Nitrosomonas europaea; assay: Nitrification inhibition assay with Nitrosomonas europaea (nitrite level after 24 h); format: cell-based; conditions: for IC50 / activity at 100 µM / activity at 50 µM: Nitrosomonas europaea; for activity at 100 µM / activity at 50 µM: 24 h, read-out: Nitrification (%) at tested concentration (0 = maximum activity); for activity at 50 µM: tested concentration 50 μM
Method: as §1, §2
To prepare a high-throughput nitrification inhibition assay using N. europaea, late-log phase cultures were subcultivated two days before the assay. Just before the assay, the cultures were 5 times overconcentrated with fresh growth medium after centrifugation (4000 rpm, 15 min, 5° C.) in 50 mL centrifuge tubes (Cat. No. 430829, CentriStar™ Conical Centrifuge Tubes, Corning®). Per batch, all the cultures were pooled in one sterile Schott bottle and subsequently dispensed into 384-well plates (Cat. No. 781086, CELL-STAR® plate, Greiner Bio-One; 50 μl/well) by use of a dispenser (Multidrop™ Combi Reagent Dispenser, Thermo Scientific™) that was first flushed with growth medium. Specifically for the high-throughput screen for new nitrification inhibitors, 0.5 μl of 99.99% DMSO (negative control—final concentration 1%) was added to the outer two columns on the left side of the plate and 0.5 μl of 10 mM DMP (3,4-dimethylpyrazole, positive control—final concentration 100 μM) was added to the outer two columns on the right side manually. Finally, 0.5 μl of candidate nitrification inhibitors (5 mM stock solutions in 99.99% DMSO—final concentration 50 μM) were added to the central wells using a pin tool on a Tecan robot (Freedom EVO®, Tecan). In between additions, the pins were washed in sequence with 99.5% DMSO, MilliQ water and 100% ethanol and air-dried. All plates were separately wrapped in Parafilm. Stacks of 4 plates were put on top of a 96-well plate filled with 100 μl MilliQ per well, covered with aluminum foil and shaken at 150 rpm at 28° C. 24 h later, NO2− production was assessed. For this, the samples were first 200 times diluted by pipetting 1.5 μl of samples into 300 μl of fresh growth medium in intermediate plates (Cat. No. 353077, Falcon® 96-well Clear Round Bottom Microplate, Corning®), to then mix 15 μl of the diluted samples with 15 μl Griess reagent in the wells of a transparent, flat bottom 384-well plate (Cat. No. X^7001, Low Profile Microplate, Molecular Devices) that was measured spectrophotometrically at 540 nm (EnVision, Perkin Elmer®).
as §3
IC50 values, that is the concentration that inhibits 50% of the nitrification, were calculated after fitting a logistic curve to 8-point dose response data, using doses between 2 and 100 μM with 1.75 fold steps. […]

[3] = 8-point dose response, 2 to 100 μM, read-out: IC50
[4] = tested concentration 100 μM, normalized to DMSO (100%) and 100 μM DMP (0%)
[5] = normalized to DMSO (100%) and 100 μM DMP (0%)

| SMILES | IC50 [1, 3] [µM] | IC50 [2, 3] [µM] | activity at 100 µM [1, 4] [%] | activity at 100 µM [2, 4] [%] | other results |
| --- | --- | --- | --- | --- | --- |
| CC1CNC(=S)S1 (centres unmarked) [Example 4] | – | – | – | – | IC50 [1]: < 2 µM; activity at 100 µM [1]: 0%; IC50 [2]: < 2 µM; activity at 100 µM [2]: 0% |
| S=c1[nH]cco1 [Example 40] | 3 | 4 | 0 | 0 | – |
| O=C1NCCS1 [Example 8] | < 100 | < 100 | 31 | 47 | – |
| CCSc1nc(CC(=O)O)cs1 [Example 27] | > 100 | > 100 | 77 | 62 | – |
| S=C1NC(c2ccccc2)CO1 (centres unmarked) [Example 42] | < 57 | 68 | 12 | 40 | – |
| Cc1cccc(CSC2=NCCS2)c1 [Example 17] | – | – | – | – | activity at 50 µM [1, 5]: 36%; activity at 50 µM [2, 5]: 100% |
| Cc1[nH]c(=S)sc1C [Example 35] | 3 | 43 | 0 | 12 | – |
| CC1CSC(SCc2cc(=O)n3ccsc3n2)=N1 (centres unmarked) [Example 14] | < 20 | < 57 | 0 | 0 | – |
| CCn1c(CSC2=NCCS2)nc2cc(F)ccc21 [Example 13] | – | – | – | – | activity at 50 µM [1, 5]: 0%; activity at 50 µM [2, 5]: 73% |
| COc1cc(C(=O)CSC2=NCCS2)cc(OC)c1OC [Example 15] | – | – | – | – | activity at 50 µM [1, 5]: 13%; activity at 50 µM [2, 5]: 78% |
| COc1ccccc1Nc1nc(N)nc(CSC2=NCCS2)n1 [Example 20] | – | – | – | – | activity at 50 µM [1, 5]: 42%; activity at 50 µM [2, 5]: 79% |
| CSC1=NCCO1 [Example 41] | – | – | – | – | IC50 [1]: > 100 µM; activity at 100 µM [1]: 68%; IC50 [2]: > 100 µM; activity at 100 µM [2]: 88% |

The next lines start with results.

| IC50 [1, 3] [µM] | IC50 [2, 3] [µM] | SMILES | activity at 100 µM [1, 4] [%] | activity at 100 µM [2, 4] [%] | other results |
| --- | --- | --- | --- | --- | --- |
| < 20 | – | O=C(CSC1=NCCS1)NCc1cc(Br)cs1 [Example 11] | 0 | – | – |
| < 2 | < 3.5 | CC1CSC(=S)N1 (centres unmarked) [Example 3] | 0 | 0 | – |
| 24 | 2 | C=CC1CNC(=S)O1 (centres unmarked) [Example 44] | 0 | 0 | – |
| 11 | 52 | S=c1[nH]c(C2CC2)cs1 [Example 34] | 0 | 0 | – |
| 16 | 14 | Oc1csc(=S)[nH]1 [Example 31] | 11 | 12 | – |
| 12 | > 100 | S=c1[nH]cc(Cc2ccccc2)s1 [Example 28] | 0 | 65 | – |
| > 100 | > 100 | Cc1csc(SC2CCCCC2)n1 [Example 38] | 53 | 92 | – |
| 2.1 | 38 | Cc1csc(=S)[nH]1 [Example 26, 4-methyl-1,3-thiazole-2-thiol] | 0 | 0 | Average nitrification [%] in Nitrosospira multiformis ([1]; 2 μM): 51%; Average nitrification [%] in Nitrosospira multiformis ([1]; 3.5 μM): 27%; Average nitrification [%] in Nitrosospira multiformis ([1]; 6 μM): 6%; Average nitrification [%] in Nitrosospira multiformis ([1]; 11 μM): 2%; Average nitrification [%] in Nitrosospira multiformis ([1]; 19 μM): 0%; Average nitrification [%] in Nitrosospira multiformis ([1]; 33 μM): 0%; Average nitrification [%] in Nitrosospira multiformis ([1]; 57 μM): 0%; Average nitrification [%] in Nitrosospira multiformis ([1]; 100 μM): 0%; Average nitrification [%] in Nitrosomonas europaea ([2]; 2 μM): 91%; Average nitrification [%] in Nitrosomonas europaea ([2]; 3.5 μM): 84%; Average nitrification [%] in Nitrosomonas europaea ([2]; 6 μM): 80%; Average nitrification [%] in Nitrosomonas europaea ([2]; 11 μM): 83%; Average nitrification [%] in Nitrosomonas europaea ([2]; 19 μM): 78%; Average nitrification [%] in Nitrosomonas europaea ([2]; 33 μM): 71%; Average nitrification [%] in Nitrosomonas europaea ([2]; 57 μM): 50%; Average nitrification [%] in Nitrosomonas europaea ([2]; 100 μM): 0% |
| 49 | 16 | S=c1[nH]c(C2CCCCC2)cs1 [Example 36] | 15 | 0 | – |
| 44 | > 100 | NCCCSc1nccs1 [Example 37] | 7 | 58 | – |
| < 2 | < 2 | CCN(CN1CCSC1=S)C1CC1 [Example 2] | 0 | 0 | – |
| 36 | 42 | S=c1[nH]c(-c2ccccc2)cs1 [Example 30] | 0 | 21 | – |
| > 100 | < 100 | CSc1nc(Br)cs1 [Example 32] | 75 | 46 | – |
| < 20 | < 100 | COc1cccc(-c2nc(CSC3=NCCS3)cs2)c1OC [Example 12] | 11 | 0 | – |
| > 100 | 28 | CSc1nc(N)c(C#N)s1 [Example 29] | 61 | 0 | – |
| 20 | 7 | CC1(C)COC(=S)N1 [Example 43] | 0 | 0 | – |
| > 100 | > 100 | CSc1ncc(Br)s1 [Example 33] | 64 | 68 | – |
